In article PMC4775916 (Antimicrobial Agents and Chemotherapy, 2016):
“And” between values parts separate entries of the source, which are not always exact repeats. Equal entries are not always repeated. Where two headings read alike, the source gives them in different places.

Assays:
VIM-4 [1] = biological target: T1, VIM-4 (Pseudomonas aeruginosa, UniProt A0A0F7KYQ8, S205R); experiment: Inhibition of enzyme-mediated nitrocefin hydrolysis; type: biochemical; settings: for IC50: read-out: IC50 VIM-4 (H224, R228); for IC50 VIM-4 (H224, R228): 10 min preincubation
T1 construct: His6 (N, cleaved yes); made in house
Protocol: (§1) Inhibitors were prepared as reported previously ([36], [41]). Enzyme-mediated hydrolysis of nitrocefin was monitored by determining the changes in absorbance at 495 nm, as previously described ([36], [37]). Residual activities were first determined at a 100 μM inhibitor concentration. […] The residual activities were obtained at increasing inhibitor concentrations (0.2 to 2,000 μM); the data were analyzed using GraphPad Prism 5.01 software.

VIM-5 [2] = biological target: T2, VIM-5 (Pseudomonas aeruginosa, UniProt A0A0F7KYQ8, A128K/E202A/H201L/K257T/S205R); experiment: as above; type: biochemical
T2 construct: His6 with HRV3C cleavage site (pET-28a) (N, cleaved yes); made in house; host or cells: E. coli BL21(DE3)
Protocol: as §1

VIM-1 [3] = biological target: T3, VIM-1 (Pseudomonas aeruginosa, UniProt A0A0F7KYQ8); experiment: as above; type: biochemical; settings: read-out: IC50 VIM-1 (H224, S228)
T3 construct: The N- and C- terminal residues of the mature enzymes are labelled 26; made in house
Protocol: as §1

VIM-2 [4] = biological target: T4, VIM-2 (Escherichia coli, UniProt Q5U7L7); experiment: as above; type: biochemical; settings: read-out: IC50 VIM-2 (Y224, R228)
T4 construct: His6 (N, cleaved yes); made in house
Protocol: as §1

VIM-38 [5] = biological target: T5, VIM-38 (Pseudomonas aeruginosa, UniProt A0A0F7KYQ8, A128K/A265V/E202A/H201L/K257T/S205R); experiment: as above; type: biochemical
T5 construct: The N- and C- terminal residues of the mature enzymes are labelled 26; His6 with HRV3C cleavage site (pET-28a) (N, cleaved yes); made in house; host or cells: E. coli BL21(DE3)
Protocol: as §1

VIM-5 [6] = biological target: T2, VIM-5; experiment: Steady-state kinetics of β-lactam substrate hydrolysis; type: biochemical; settings: 50 mM HEPES pH 7.2, apparent for ampicillin and ceftazidime; for Km: read-out: Mean Km ± SD VIM-5
Protocol: (§2) The hydrolysis of a representative panel of β-lactam substrates was monitored at their respective absorbance wavelengths. The wavelengths and extinction coefficients used were previously described ([34]). The assays were carried out using 50 mM HEPES buffer (pH 7.2) supplemented with 1 μg/ml bovine serum albumin (BSA), 1 μM ZnSO4, and 0.01% Triton X-100. In the case of VIM-1, C-terminally His6-tagged VIM-1 was used for kinetic analyses. Note that no differences were observed between the activities of untagged VIM-1 and C-terminally His6-tagged VIM-1 for the selected antibiotics (data not shown). The initial rates were obtained from the changes in absorbance at various substrate concentrations. Steady-state kinetic parameters (Km and kcat) were determined by fitting the initial velocity data to the Michaelis-Menten equation using GraphPad Prism 5.01 software (see Table S4 in the supplemental material).

VIM-38 [7] = experiment: as above; type: biochemical; settings: VIM-38 versus VIM-1
Protocol: as §2

VIM-5 [8] = experiment: as above; type: biochemical; settings: VIM-5 versus VIM-1
Protocol: as §2

VIM-38 [9] = biological target: T5, VIM-38; experiment: as above; type: biochemical; settings: 50 mM HEPES pH 7.2, apparent for ampicillin and ceftazidime; for Km: read-out: Mean Km ± SD VIM-38
Protocol: as §2

VIM-5 [10] = biological target: T2, VIM-5; experiment: 1H CPMG NMR binding assay (thiomandelic acid reporter ligand displacement)
Protocol: (§3) Binding assays were carried out using ^1H-edited Carr-Purcell-Meiboom-Gill (CPMG) nuclear magnetic resonance (NMR) analyses. Spectra were recorded by using a Bruker AVIII 600-MHz NMR spectrometer equipped with a BB-F/^1H Prodigy N2 cryoprobe using 3-mm Match NMR tubes (Cortectnet). The PROJECT-CPMG sequence (90°x-[τ-180°y-τ-90°y-τ-180°y-τ]n-acq) was applied, and water suppression was achieved by presaturation. […] Assays were conducted using 50 mM Tris-D11 (pH 7.5) supplemented with 0.02% NaN3 in 90% H2O and 10% D2O. Equilibrium dissociation constant (KD) measurements for the reporter ligand (50 μM thiomandelic acid) and inhibitors (0 to 300 μM) were carried out as previously reported ([43]). Data were processed with Bruker 3.1 software and fitted by using Origin Pro8.5.1 (see Table S5 in the supplemental material).
(§4) *Apparent kinetic parameters were reported for ampicillin and ceftazidime hydrolysis. #C-terminal His -tagged […]
(§5) VIM-1 was used for kinetic analyses.
(§6) Table S5. Apparent KD curve fitting for the binding of inhibitors (1) and (2) to VIM-2 and […]
(§7) Apparent KD fitting as monitored by 1H CPMG NMR spectra of the signal recovery of thiomandelic acid (50 μM) upon addition of increasing concentrations of 1 and 2 with a final enzyme concentration of 50 μM VIM-2/VIM-5. Assays were conducted in 50 mM Tris-D11 (pH […]
(§8) (also on this page, place not known: K D Tris-D 11 His6-tagged V0 (µM/ s) NN OHO % thiomandelic acid displacement µM % thiomandelic acid displacement) […]

VIM-2 [11] = biological target: T4, VIM-2; experiment: as above; settings: 50 μM thiomandelic acid, 50 μM enzyme, 50 mM Tris-D11 pH 7.5, read-out: KD app VIM-2
Protocol: as §3, §4, §5, §6, §7, §8

VIM-38 [12] = experiment: Inhibition of enzyme-mediated nitrocefin hydrolysis; type: biochemical; settings: VIM-38 versus VIM-1
Protocol: as §1

VIM-5 [13] = experiment: as above; type: biochemical; settings: VIM-5 versus VIM-1
Protocol: as §1

VIM-2 [14] = experiment: as above; type: biochemical; settings: VIM-2 versus VIM-5 and VIM-38
Protocol: as §1

VIM-2 [15] = type: biochemical; settings: VIM-2 versus VIM-1
Protocol: as §2

VIM-1 [16] = biological target: T3, VIM-1; settings: previous studies ref Franceschini et al. (4), cited from earlier work
VIM-1 [17] = biological target: T3, VIM-1; experiment: Steady-state kinetics of β-lactam substrate hydrolysis; type: biochemical; settings: C-terminally His6-tagged VIM-1; 50 mM HEPES pH 7.2; apparent for ampicillin and ceftazidime
Protocol: as §2

VIM-2 [18] = system: VIM-2; parameters: method as in Poirel et al. (5); settings: previous studies ref Poirel et al. (5), cited from earlier work
VIM-5 [19] = system: VIM-5; parameters: method as in Garcar et al. (6); settings: previous studies ref Garcar et al. (6), cited from earlier work
VIM-4 [20] = biological target: T1, VIM-4; experiment: Nitrocefin hydrolysis kinetics before thermal denaturation and after refolding; type: biochemical
Protocol: (§9) Circular dichroism (CD) analyses were carried out using a Chirascan CD spectrophotometer (Applied Photophysics) equipped with a Peltier temperature-controlled cell holder. CD measurements were collected in the range of 185 to 260 nm; spectra were baseline corrected and smoothed using a Savitzky-Golay filter. Data were normalized at 207 nm to account for differences in protein concentrations ([38]), and the estimation of secondary structure content was performed with Dichro Web ([39]) using the CONTIN Analysis Programme (reference set 6) ([40]). Melting temperatures (Tm) of the recombinant enzymes were determined by monitoring temperature-induced changes in the CD signal at 222 nm. The temperature was increased by 1°C per min, and the CD signal was recorded at temperatures ranging from 25°C to 92°C. The samples were then cooled from 92°C to 25°C at the same rate, and a CD spectrum of the refolded proteins was determined. The activity of the enzymes was recorded before thermal denaturation and after refolding by monitoring nitrocefin hydrolysis. The thermal denaturation data were fitted to a Boltzmann sigmoidal curve by using GraphPad Prism 5.0 software. CD spectra and thermal denaturation curves are shown in Fig. 2 and in Tables S2 and S3 in the supplemental material.

VIM-5 [21] = biological target: T2, VIM-5; experiment: as above; type: biochemical
Protocol: as §9

VIM-1 [22] = biological target: T3, VIM-1; experiment: as above; type: biochemical
Protocol: as §9

VIM-2 [23] = biological target: T4, VIM-2; experiment: as above; type: biochemical
Protocol: as §9

VIM-38 [24] = biological target: T5, VIM-38; experiment: as above; type: biochemical
Protocol: as §9

O=C(N[C@H](Cc1c[nH]c2ccccc12)C(=O)O)c1ncccc1O [compound 3]
IC50 (VIM-4 [1]): 125 µM | IC50 (VIM-5 [2]): 50 µM | IC50 (VIM-1 [3]): 50 µM | IC50 (VIM-2 [4]): 100 µM | IC50 (VIM-38 [5]): 50 µM

CO[C@@]1(NC(=O)Cc2cccs2)C(=O)N2C(C(=O)O)=C(COC(N)=O)CS[C@@H]21 [Cefoxitin]
kcat VIM-5 (VIM-5 [6]): 460 s⁻¹ | Km (VIM-5 [6]): 320 ± 60 µM | fold increase in kcat/Km of VIM-38 over VIM-1 (VIM-38 [7]): > 7 fold | fold-higher kcat of VIM-38 than VIM-1 (VIM-38 [7]): > 10 fold | fold increase in kcat/Km of VIM-5 over VIM-1 (VIM-5 [8]): > 7 fold | fold-higher kcat of VIM-5 than VIM-1 (VIM-5 [8]): > 10 fold | kcat VIM-38 (VIM-38 [9]): 340 s⁻¹ | Km (VIM-38 [9]): 230 ± 60 µM

O=C(N[C@@H](Cc1c[nH]c2ccccc12)C(=O)O)c1nc(Cl)c2ccccc2c1O [compound 2]
Kd (VIM-5 [10]): 180 µM | Kd (VIM-2 [11]): 330 µM | IC50 (VIM-4 [1]): 600 µM | IC50 (VIM-5 [2]): 50 µM | IC50 (VIM-1 [3]): 60 µM | IC50 (VIM-2 [4]): 300 µM | IC50 (VIM-38 [5]): 80 µM

O=C(N[C@H](Cc1c[nH]c2ccccc12)C(=O)O)c1nc(Cl)c2ccccc2c1O [compound 1]
Kd (VIM-5 [10]): 140 µM | Kd (VIM-2 [11]): 180 µM | fold-higher IC50 of VIM-4 than VIM-5 and VIM-38 (VIM-4 [1]; VIM-4 versus VIM-5 and VIM-38): > 40 fold | IC50 (VIM-4 [1]): 200 µM | IC50 (VIM-5 [2]): 2 µM | better inhibitor of VIM-38 than VIM-1 (IC50 ratio) (VIM-38 [12]): > 500 fold | better inhibitor of VIM-5 than VIM-1 (IC50 ratio) (VIM-5 [13]): > 500 fold | IC50 (VIM-1 [3]): > 1000 µM | IC50 (VIM-2 [4]): 90 µM | IC50 (VIM-38 [5]): 2 µM | fold-higher IC50 of VIM-2 than VIM-5 and VIM-38 (VIM-2 [14]): > 40 fold

C[C@@H](O)[C@H]1C(=O)N2C(C(=O)O)=C(SCCN=CN)C[C@H]12 [Imipenem]
fold increase in kcat/Km of VIM-2 compared to VIM-1 (VIM-2 [15]): 6 fold | kcat VIM-1 (previous study) (VIM-1 [16]): 2 s⁻¹ | Km (VIM-1 [16]; read-out: Km VIM-1 (previous study)): 1.5 µM | kcat VIM-5 (VIM-5 [6]): 58 s⁻¹ and 60 s⁻¹ | Km (VIM-5 [6]): 58 µM and 60 µM | kcat VIM-1 (VIM-1 [17]): 30 s⁻¹ | kcat VIM-38 (VIM-38 [9]): 90 s⁻¹ | Km (VIM-38 [9]): 150 ± 20 µM | kcat VIM-2 (previous study) (VIM-2 [18]): 9.9 s⁻¹ | Km (VIM-2 [18]; read-out: Km VIM-2 (previous study)): 10 µM | kcat VIM-5 (previous study) (VIM-5 [19]): 3.5 s⁻¹ | Km (VIM-5 [19]; read-out: Km VIM-5 (previous study)): 12 µM

O=C(Cc1cccs1)N[C@@H]1C(=O)N2C(C(=O)O)=C(/C=C/c3ccc([N+](=O)[O-])cc3[N+](=O)[O-])CS[C@H]12 [Nitrocefin]
kcat VIM-4 after refolding (VIM-4 [20]; after refolding): 180 s⁻¹ | Km (VIM-4 [20]; after refolding, read-out: Km VIM-4 after refolding): 30 ± 2 µM | kcat VIM-4 pre-heating (VIM-4 [20]; pre-heating): 340 s⁻¹ | Km (VIM-4 [20]; pre-heating, read-out: Km VIM-4 pre-heating): 45 ± 1 µM | kcat VIM-5 after refolding (VIM-5 [21]; after refolding): 100 s⁻¹ | Km (VIM-5 [21]; after refolding, read-out: Km VIM-5 after refolding): 11 ± 1 µM | kcat VIM-5 pre-heating (VIM-5 [21]; pre-heating): 210 s⁻¹ | Km (VIM-5 [21]; pre-heating, read-out: Km VIM-5 pre-heating): 45 ± 3 µM | kcat VIM-1 after refolding (VIM-1 [22]; after refolding): 12 s⁻¹ | kcat VIM-1 pre-heating (VIM-1 [22]; pre-heating): 25 s⁻¹ | kcat VIM-2 after refolding (VIM-2 [23]; after refolding): 290 s⁻¹ | Km (VIM-2 [23]; pre-heating): 13 ± 1 µM | kcat VIM-2 pre-heating (VIM-2 [23]; pre-heating): 290 s⁻¹ | kcat VIM-38 pre-heating (VIM-38 [24]; pre-heating): 690 s⁻¹ | Km (VIM-38 [24]; read-out: Km VIM-38 after refolding, after refolding): 40 ± 4 µM | Km (VIM-38 [24]; read-out: Km VIM-38 pre-heating, pre-heating): 55 ± 6 µM | kcat VIM-5 (VIM-5 [6]): 420 s⁻¹ | Km (VIM-5 [6]): 50 ± 5 µM | kcat VIM-38 (VIM-38 [9]): 720 s⁻¹ | Km (VIM-38 [9]): 70 ± 10 µM
